Laboratory results taken from ChEMBL document CHEMBL3856212, “Synthesis, anti-proliferative and genotoxicity studies of 6-chloro-5-(2-substituted-ethyl)-1,3-dihydro-2H-indol-2-ones and 6-chloro-5-(2-chloroethyl)-3-(alkyl/ary-2-ylidene)indolin-2-ones” (Eur J Med Chem, 2016).

Key:
[1] = Cytotoxicity against human MOLT4 cells assessed as growth inhibition after 48 hrs by SRB assay; type: functional; details: MOLT-4, 48 h
[2] = Cytotoxicity against human EKVX cells assessed as growth inhibition after 48 hrs by SRB assay; type: functional
[3] = Cytotoxicity against human HCT15 cells assessed as growth inhibition after 48 hrs by SRB assay; type: functional; details: HCT-15, 48 h
[4] = Cytotoxicity against human HT-29 cells assessed as growth inhibition after 48 hrs by SRB assay; type: functional; details: HT-29, 48 h
[5] = Cytotoxicity against human KM12 cells assessed as growth inhibition after 48 hrs by SRB assay; type: functional; details: KM12, 48 h
[6] = Cytotoxicity against human MDA-MB-435 cells assessed as growth inhibition after 48 hrs by SRB assay; type: functional; details: MDA-MB-435, 48 h
[7] = Cytotoxicity against human UACC257 cells assessed as growth inhibition after 48 hrs by SRB assay; type: functional; details: UACC-257, 48 h
[8] = Cytotoxicity against human OVCAR5 cells assessed as growth inhibition after 48 hrs by SRB assay; type: functional; details: OVCAR-5, 48 h
[9] = Cytotoxicity against human NCI-ADR-RES cells assessed as growth inhibition after 48 hrs by SRB assay; type: functional
[10] = Cytotoxicity against human Caki1 cells assessed as growth inhibition after 48 hrs by SRB assay; type: functional; details: CAKI-1, 48 h
[11] = Cytotoxicity against human MCF7 cells assessed as growth inhibition after 48 hrs by SRB assay; type: functional; details: MCF7, 48 h
[12] = Cytotoxicity against human BT549 cells assessed as growth inhibition after 48 hrs by SRB assay; type: functional; details: BT-549, 48 h
[13] = Cytotoxicity against human T47D cells assessed as growth inhibition after 48 hrs by SRB assay; type: functional
[14] = Cytotoxicity against human A549 cells assessed as assessed as growth inhibition at 10^-5 M after 48 hrs by SRB assay relative to control; type: functional; details: A549, 48 h, read-out: GI
[15] = Cytotoxicity against human NCI-H23 cells assessed as assessed as growth inhibition at 10^-5 M after 48 hrs by SRB assay relative to control; type: functional; details: NCI-H23, 48 h, read-out: GI
[16] = Cytotoxicity against human HCC2998 cells assessed as assessed as growth inhibition at 10^-5 M after 48 hrs by SRB assay relative to control; type: functional; details: HCC 2998, 48 h, read-out: GI
[17] = Cytotoxicity against human KM12 cells assessed as assessed as growth inhibition at 10^-5 M after 48 hrs by SRB assay relative to control; type: functional; details: KM12, 48 h, read-out: GI
[18] = Cytotoxicity against human SF295 cells assessed as assessed as growth inhibition at 10^-5 M after 48 hrs by SRB assay relative to control; type: functional; details: SF-295, 48 h, read-out: GI
[19] = Cytotoxicity against human SNB19 cells assessed as assessed as growth inhibition at 10^-5 M after 48 hrs by SRB assay relative to control; type: functional; details: SNB-19, 48 h, read-out: GI
[20] = Cytotoxicity against human M14 cells assessed as assessed as growth inhibition at 10^-5 M after 48 hrs by SRB assay relative to control; type: functional; details: M14, 48 h, read-out: GI
[21] = Cytotoxicity against human MDA-MB-435 cells assessed as assessed as growth inhibition at 10^-5 M after 48 hrs by SRB assay relative to control; type: functional; details: MDA-MB-435, 48 h, read-out: GI
[22] = Cytotoxicity against human SK-MEL-5 cells assessed as assessed as growth inhibition at 10^-5 M after 48 hrs by SRB assay relative to control; type: functional; details: SK-MEL-5, 48 h, read-out: GI
[23] = Cytotoxicity against human OVCAR4 cells assessed as assessed as growth inhibition at 10^-5 M after 48 hrs by SRB assay relative to control; type: functional; details: OVCAR-4, 48 h, read-out: GI
[24] = Cytotoxicity against human OVCAR5 cells assessed as assessed as growth inhibition at 10^-5 M after 48 hrs by SRB assay relative to control; type: functional; details: OVCAR-5, 48 h, read-out: GI
[25] = Cytotoxicity against human NCI-ADR-RES cells assessed as assessed as growth inhibition at 10^-5 M after 48 hrs by SRB assay relative to control; type: functional; details: read-out: GI
[26] = Cytotoxicity against human SN12C cells assessed as assessed as growth inhibition at 10^-5 M after 48 hrs by SRB assay relative to control; type: functional; details: read-out: GI
[27] = Cytotoxicity against human TK10 cells assessed as assessed as growth inhibition at 10^-5 M after 48 hrs by SRB assay relative to control; type: functional; details: TK-10, 48 h, read-out: GI
[28] = Cytotoxicity against human UO31 cells assessed as assessed as growth inhibition at 10^-5 M after 48 hrs by SRB assay relative to control; type: functional; details: UO-31, 48 h, read-out: GI
[29] = Cytotoxicity against human Hs 578T cells assessed as assessed as growth inhibition at 10^-5 M after 48 hrs by SRB assay relative to control; type: functional; details: read-out: GI
[30] = Cytotoxicity against human BT549 cells assessed as assessed as growth inhibition at 10^-5 M after 48 hrs by SRB assay relative to control; type: functional; details: BT-549, 48 h, read-out: GI
[31] = Cytotoxicity against human T47D cells assessed as assessed as growth inhibition at 10^-5 M after 48 hrs by SRB assay relative to control; type: functional; details: read-out: GI
[32] = species: Mus musculus; assay: Genotoxicity in mouse EAC cells at 125 uM after 24 hrs by micronucleus assay (reference value: 3.5 +/- 0.30%); type: toxicity, cell-based; details: ehrlich
[33] = species: Mus musculus; assay: Genotoxicity in mouse EAC cells at 375 uM after 24 hrs by micronucleus assay (reference value: 3.5 +/- 0.30%); type: toxicity, cell-based; details: ehrlich
[34] = Induction of apoptosis in mouse EAC cells at 375 uM after 24 hrs by acridine orange dye-based fluorescence microscopy (reference value: 0.66 +/- 0.33%); type: cell-based; details: ehrlich
[35] = Cytotoxicity against human NCI-H322M cells assessed as assessed as growth inhibition at 10^-5 M after 48 hrs by SRB assay relative to control; type: functional; details: read-out: GI
[36] = read-out: LD50 (the source's name)

O=C1Cc2cc(CCn3cncn3)c(Cl)cc2N1
GI50 [1]: 1 µM
TGI [1]: > 1 µM
CC50 [1, 36]: > 1 µM
GI50 [2]: 8.25 µM
TGI [2]: > 1 µM
CC50 [2, 36]: > 1 µM
GI50 [3]: 9.59 µM
TGI [3]: > 1 µM
CC50 [3, 36]: > 1 µM
GI50 [4]: 1 µM
TGI [4]: > 1 µM
CC50 [4, 36]: > 1 µM
GI50 [5]: 5.42 µM
TGI [5]: > 1 µM
CC50 [5, 36]: > 1 µM
GI50 [6]: 3.22 µM
TGI [6]: > 1 µM
CC50 [6, 36]: > 1 µM
GI50 [7]: 7.14 µM
TGI [7]: > 1 µM
CC50 [7, 36]: > 1 µM
GI50 [8]: 1 µM
TGI [8]: > 1 µM
CC50 [8, 36]: > 1 µM
GI50 [9]: 5.85 µM
TGI [9]: > 1 µM
CC50 [9, 36]: > 1 µM
GI50 [10]: 8.35 µM
TGI [10]: > 1 µM
CC50 [10, 36]: > 1 µM
GI50 [11]: 4.02 µM
TGI [11]: > 1 µM
CC50 [11, 36]: > 1 µM
GI50 [12]: 8.72 µM
TGI [12]: > 1 µM
CC50 [12, 36]: > 1 µM
GI50 [13]: 1 µM
TGI [13]: > 1 µM
CC50 [13, 36]: > 1 µM
inhibition of growth at 10 µM [14]: 40.2%
inhibition of growth at 10 µM [15]: 75.9%
inhibition of growth at 10 µM [16]: 24.9%
inhibition of growth at 10 µM [17]: 64%
inhibition of growth at 10 µM [18]: 30.7%
inhibition of growth at 10 µM [19]: 25.6%
inhibition of growth at 10 µM [20]: 76%
inhibition of growth at 10 µM [21]: 65.6%
inhibition of growth at 10 µM [22]: 59.9%
inhibition of growth at 10 µM [23]: 13.2%
inhibition of growth at 10 µM [24]: 12.6%
inhibition of growth at 10 µM [25]: 47.1%
inhibition of growth at 10 µM [26]: 44.2%
inhibition of growth at 10 µM [27]: -21.7%
inhibition of growth at 10 µM [28]: 34%
inhibition of growth at 10 µM [29]: 71.4%
inhibition of growth at 10 µM [30]: 32%
inhibition of growth at 10 µM [31]: 0.92%
Activity [32]: 3.27%
Activity [33]: 4.13%
Activity [34]: 0.9%
inhibition of growth at 10 µM [35]: 7.87%
